Data published in US20160243190A1, “DOSES AND METHODS FOR ADM[…]” (THERAVANCE BIOPHARMA A[…], LLC, priority 2015, published 2016).
Where two headings read alike, the source gives them in different places.

Legend:
[1] = CART (classification and regression tree) analysis of exposure and 28-day mortality; format: in vivo, human; conditions: HABP/VABP subjects with renal impairment
Method: Values were determined for each simulated clinical trial (n=100), and presented as a mean and standard deviation.
The logistic regression analysis in HABP/VABP subjects with impaired renal function (CrCl≦50 mL/min) is consistent with the results of the CART analysis in HABP/VABP subjects with renal impairment.

[2] = Observed outcomes in Phase 3 HABP/VABP and cSSSI studies 0015, 0017, 0018, 0019; format: in vivo, human
From the text: The data for the simulations was based on 1771 subjects from Studies 0015, 0017, 0018 and 0019.
The data for the analysis was based upon 579 subjects from Studies 0015, 0017, 0018 and 0019. […]

[3] = Individually predicted steady state exposure in Phase 3 subjects with PK samples; format: in vivo; conditions: human, plasma, intravenous
Method: This analysis was designed to describe the relationship between exposure and response in patients treated with telavancin.
The predicted telavancin PK profiles for each subject were generated using the individually estimated PK parameters determined during the population PK analysis based on the administered dose as recorded in the dataset. The individually estimated PK parameters for each subject were determined based upon the specific intra- and inter-individual errors determined using nonlinear mixed effect analysis.

[4] = Population PK model for telavancin from Phase 1, 2 and 3 plasma concentrations; format: in vivo; conditions: both sexes, human, intravenous, final combined population PK model, read-out: CL, population estimate ± SE (converted)
[5] = Logistic regression of outcomes as a function of steady state exposure (AUC0-24h) in Phase 3 subjects; format: in vivo, human
Method: Logistic regression analysis was used to parameterize the relationship between exposure (AUC0-24h) and the probability of 28-day all-cause mortality, AKI (defined as a 50% increase or greater than 0.5 mg/dL increase in serum creatinine) and clinical response at test of cure (TOC) for all Phase 3 subjects. The analysis was repeated for the individual HABP/VABP and cSSSI subpopulations.
Logistic regression analyses were conducted on the Phase 3 dataset using individually predicted exposure (AUC0-24h) and the outcomes of interest (28-day all-cause mortality, AKI, and clinical response at TOC). The analysis was performed using the generalized linear model function in R specifying a binomial variance and the logit link function.
The output produced for each logistic regression analysis includes indices of fit (i.e., null and deviance residuals, Akaike's information criterion and likelihood ratio test statistics to provide an assessment of model improvement as additional parameters are included in the model).

[6] = Phase 3 HABP/VABP subjects with PK samples, n=196
[7] = Phase 3 Total with PK samples, n=579
[8] = Phase 3 all-treated HABP/VABP subjects, n=750
[9] = Phase 3 all-treated Total, n=1771
[10] = Phase 3 all-treated cSSSI subjects, n=1021
[11] = Phase 3 cSSSI subjects with PK samples, n=383

Which “predicted exposure with greater likelihood of 28-day mortality (CART cutpoint)” value [1] does the source give for `CCCCCCCCCCNCCNC1(C)CC(OC2C(Oc3c4cc5cc3Oc3ccc(cc3Cl)[C@@H](O)[C@@H](NC(=O)[C@@H](CC(C)C)NC)C(=O)N[C@@H](CC(N)=O)C(=O)N[C@H]5C(=O)N[C@H]3C(=O)N[C@H](C(=O)N[C@H](C(=O)O)c5cc(O)c(CNCP(=O)(O)O)c(O)c5-c5cc3ccc5O)[C@H](O)c3ccc(c(Cl)c3)O4)OC(CO)C(O)C2O)OC(C)C1O` (stereo partly shown) [telavancin, N^3″-[2-(decylamino)ethyl]-29-[[(phosphonomethyl)amino]methyl]vancomycin] here?
The value was “greater than 767 μg·hr/mL”.

What about the “AKI, Y (number of subjects)” value [2, 6] of the same molecule?
The value was “Y = 39, N = 157”.

What about the “CURE (number of subjects)” value [2, 6] of the same molecule?
The value was “CURE = 127,”.

And the “MORTALITY, Y (number of subjects)” value [2, 6]?
Its value is “Y = 45, N = 151”.

And the “AKI, Y (number of subjects)” value [2, 7]?
Its value is “Y = 78, N = 500,”.

What about the “CURE (number of subjects)” value [2, 7] of the same molecule?
Its value is “CURE = 449,”.

And the “MORTALITY, Y (number of subjects)” value [2, 7]?
The value was “Y = 46, N = 533”.

What about the “AKI, Y (number of subjects)” value [2, 8] of the same molecule?
Its value is “Y = 171, N = 542,”.

And the “CURE (number of subjects)” value [2, 8]?
The value was “CURE = 442,”.

What about the “MORTALITY, Y (number of subjects)” value [2, 8] of the same molecule?
Its value is “Y = 178, N = 572,”.

What about the “AKI, Y (number of subjects)” value [2, 9] of the same molecule?
Its value is “Y = 291, N = 1413,”.

And the “CURE (number of subjects)” value [2, 9]?
Its value is “CURE = 1230,”.

And the “MORTALITY, Y (number of subjects)” value [2, 9]?
The value was “Y = 187, N = 1584”.

And the “AKI, Y (number of subjects)” value [2, 10]?
The value was “Y = 120, N = 871,”.

What about the “CURE (number of subjects)” value [2, 10] of the same molecule?
The value was “CURE = 788,”.

And the “MORTALITY, Y (number of subjects)” value [2, 10]?
The value was “Y = 9, N = 1012,”.

What about the “AKI, Y (number of subjects)” value [2, 11] of the same molecule?
The value was “Y = 39, N = 343,”.

And the “CURE (number of subjects)” value [2, 11]?
Its value is “CURE = 322,”.

And the AUC0-24 at steady state ([3]; HABP/VABP subjects, n=196, read-out: AUC0-24, mean ± SD (range))?
The AUC0-24 at steady state was 670 ± 231 µg·h/mL.

And the AUC0-24 at steady state ([3]; Total, n=579, read-out: AUC0-24, mean ± SD (range))?
The AUC0-24 at steady state was 671 ± 214 µg·h/mL.

What about the AUC0-24 at steady state ([3]; cSSSI subjects, n=383, read-out: AUC0-24, mean ± SD (range)) of the same molecule?
Its AUC0-24 at steady state is 671 ± 206 µg·h/mL.

What about the clearance [4] of the same molecule?
Its clearance is 19.2 mL/min.

What about the “Steady State AUC0-24 h coefficient, Estimate; clinical response at TOC” value ([5]; all HABP/VABP subjects) of the same molecule?
The value was 4.50e−4.

What about the “Steady State AUC0-24 h coefficient, Pr(>|z|); clinical response at TOC” value ([5]; all HABP/VABP subjects) of the same molecule?
Its value is 0.495.

And the “Steady State AUC0-24 h coefficient, Estimate; clinical response at TOC” value ([5]; all Phase 3 subjects)?
Its value is 4.29e−3.

What about the “Steady State AUC0-24 h coefficient, Pr(>|z|); clinical response at TOC” value ([5]; all Phase 3 subjects) of the same molecule?
The value was 0.368.

And the “Steady State AUC0-24 h coefficient, Estimate; clinical response at TOC” value ([5]; all cSSSI subjects)?
Its value is 4.11e−4.

And the “Steady State AUC0-24 h coefficient, Pr(>|z|); clinical response at TOC” value ([5]; all cSSSI subjects)?
The value was 0.557.
